According to patent US12324800B2 (priority 2019, dated 2025):

Assays:
[1] = design: key to Phase preferences, Physiological conditions: L, Lamellar; HII, hexagonal; M, micellar; conditions: liquid crystalline unsaturated lipids, cited from earlier work; for Phase preferences, Other conditions: conditions given in the cell
[2] = Rancimat accelerated oxidation test; assay type: physicochemical
Experimental: To investigate this, accelerated oxidation tests of cannabis oil in the labile soybean oil with and without additional antioxidants were conducted. The Rancimat (Metrohm MG, Herisau, Switzerland) test was used for this purpose as follows. 2 g of oil were placed in a narrow glass flask, heated to 110° C. and air was bubbled through the oil at 20 ml/min. This caused accelerated oxidation. As the liquid oxidized, volatile secondary oxidation products were volatilized and bubbled into room temperature water. This caused them to dissolve in the water, which results in an increase in its electrical conductivity. The conductivity is measured continuously using a standard electrode.

[3] = THC degradation on heating of cannabis oil films (gas-liquid chromatography); conditions: dry films with 14 mg cannabis oil, 1.5 hours at 100° C.
Experimental: Five 1 ml chromatography glass vials were used for this purpose. […] Stock solutions of 0.5% sunflower lecithin (Sunlec25), 0.01% TBHQ and 0.5% lecithin+0.01% TBHQ were prepared.
The chloroform was evaporated under a stream of air until completely dry. […] After the heating period, samples were removed from the oven, allowed to cool to room temperature and then 1 ml of fresh chloroform was added to each vial and capped. Samples were then analyzed by gas-liquid chromatography as described previously. […] A 15 m×0.25 mm internal diameter fused silica column with a 0.20 μm DB5 film thickness was used (Agilent Inc., USA). The oven temperature was maintained at 80° C. for 5 minutes and then programmed to increase from 80 to 300° C. at 12° C./min. […] Split ratio was set at 10:1. Helium, the earlier gas, flowed at an average velocity of 25 cm/s. A flame ionization detector was set at 350° C. with 450 mL/min air and 50 mL/min helium flowing. The separated peaks were analyzed using Open LAB software (Agilent Technologies). The amount of cannabinoid was determined by comparing retention times of the peaks to an internal standard. Tor this analysis, the main THC peak was analyzed.

Molecule	Phase preferences, Physiological conditions [1]	Phase preferences, Other conditions [1]	further results
Phosphatidylcholine	L	HII low hydration and high	
Cerebroside	L		
Phosphatidylglycerol	L	HII, high temp, high salt conc.	
Phosphatidylethanolamine	HII	L, pH ≥ 8.5 low temp	
Cerebroside sulfate	L		
Ganglioside	M		
Lysophosphatidylcholine	M		
Monogalactosyldiglyceride	HII		
Sphingomyelin	L		
CC(C)(C)c1cc(O)ccc1O [TBHQ, tert-butylhydroquinone]			increase of induction time ([2]; 0.01% TBHQ added to soybean oil alone): 7.1 h; induction time of oxidation ([2]; 0.01% TBHQ added to soybean oil containing 4.8 mg/g cannabis oil): 15.7 h; induction time of oxidation ([2]; 0.01% TBHQ added to soybean oil containing 0.5% sunflower lecithin and 4.8 mg/g cannabis oil): 28.8 h; increase of induction time of oxidation for every 100 ppm TBHQ added ([2]; soybean oil, 110° C.): 7.1 to 7.2 h
Phosphatidic acid	L	HII, divalent cations,	
CCCCCc1cc(O)c2c(c1)OC(C)(C)[C@@H]1CCC(C)=C[C@@H]21 [THC, tetrahydrocannabinol]			degradation of THC on heating [3]: significant degradation
Phosphatidylinositol	L		
Monoglucosyldiglyceride	HII		
Digalactosyldiglyceride	L		
Phosphatidylserine	L	HII, pH ≤ 3.5	
CC(C)CCC[C@@H](C)[C@H]1CC[C@H]2[C@@H]3CC=C4C[C@@H](O)CC[C@]4(C)[C@H]3CC[C@]12C [Cholesterol, cholesterol, reference compound]		Induces HII phase in mixed	
Diglucosyldiglyceride	L		
Cardiolipin	L	HII, divalent cations,	
